Assay: Weights, CBC, blood chemistry and signs of toxicity, Table S1 sheet PD-2 (infected Aotus, twice a day for seven days)
Type: in vivo, Aotus lemurinus lemurinus
Details: oral 10 mg/kg twice a day/7 days
Procedure: Laboratory bred Aotus lemurinus lemurinus monkeys (0.75–0.89 kg) were maintained as described. […] Blood samples were collected before the treatment started (t = 0), 0.05 h, 0.5 h, 1 h, 2 h, 6 h, 24 h, 48 h, and 6, 12 and 18 days after the first dose from each monkey and processed as described below. Pharmacokinetic parameters were calculated using PKSolver. For efficacy studies, Aotus monkeys were inoculated intravenously with 5×10^6 parasites of the FVO strain of P. falciparum in an approved treatment protocol. […] Parasitaemia was determined by Giemsa-stained thick blood smears prepared daily from the marginal ear vein [41]. Blood samples were collected from each monkey and transferred to tubes containing lithium heparin, centrifuged and both plasma and blood cells were frozen at −80 °C until analysis. Animals received a physical examination and blood chemistry profiles were monitored after treatment as described previously. Any monkey not responding appropriately to treatment was cured of its infection with mefloquine (40 mg kg^−1). […] The day of clearance is defined as the first of three consecutive days in which the thick blood films are parasite negative. The day of recrudescence is the first of three consecutive days of positive thick blood films after a period of clearance. Suppression is defined as a transient decrease in the parasite count post-treatment without clearance.

## Nc1nc2c(CN3CC(O)C(CO)C3)c[nH]c2c(=O)[nH]1 (stereo not drawn) [BCX4945, 4′-deaza-1′-aza-2′-deoxy-1′-(9-methylene)-Immucillin-G]
26027 Male (ITM3), day 15
  WEIGHT: 890 g
26027 Male (ITM3), day 18
  Blood Urea Nitrogen: 20.6 mg/dL
  Creatine: 0.5 mg/dL
  Erythrocytes: 4.74e+06 µL⁻¹
  Glutamate Pyruvate Transaminase: 27.5 U/L
  Granulocytes (%): 37%
  Granulocytes (x 103/ul): 3 x 103/ul
  Hematocrit: 39.9%
  Hemoglobin: 14.1 g/dL
  Leucocytes: 8100 µL⁻¹
  Lymphocytes (%): 58.1%
  Lymphocytes (x 103/ul): 4.7 x 103/ul
  Mean Corpuscular Hemoglobin: 29.9 pg
  Mean Corpuscular Volume: 84.3 fL
  Mean Hemoglobin Content: 35.4 g/dL
  Mean Platelet Volume: 11.7 fL
  Monocytes (%): 4.9%
  Monocytes (x 103/ul): 0.4 x 103/ul
  Platelets: 208000 µL⁻¹
  Red Cell Distribution Width: 17.7%
  Reticulocytes: 1.9%
  WEIGHT: 900 g
26027 Male (ITM3), day 25
  Erythrocytes: 4.04e+06 µL⁻¹
  Granulocytes (%): 17.2%
  Granulocytes (x 103/ul): 2.5 x 103/ul
  Hematocrit: 35.7%
  Hemoglobin: 12.2 g/dL
  Leucocytes: 14500 µL⁻¹
  Lymphocytes (%): 74.8%
  Lymphocytes (x 103/ul): 10.8 x 103/ul
  Mean Corpuscular Hemoglobin: 30.1 pg
  Mean Corpuscular Volume: 88.4 fL
  Mean Hemoglobin Content: 34 g/dL
  Mean Platelet Volume: 13.3 fL
  Monocytes (%): 8%
  Monocytes (x 103/ul): 1.2 x 103/ul
  Platelets: 118000 µL⁻¹
  Red Cell Distribution Width: 17.3%
  Reticulocytes: 3.1%
  WEIGHT: 888 g
26027 Male (ITM3), day -10
  Blood Urea Nitrogen: 18.35 mg/dL
  Creatine: 0.5 mg/dL
  Erythrocytes: 5.73e+06 µL⁻¹
  Glutamate Pyruvate Transaminase: 23.9 U/L
  Granulocytes (%): 15.9%
  Granulocytes (x 103/ul): 1.6 x 103/ul
  Hematocrit: 46.1%
  Hemoglobin: 17.0 g/dL
  Leucocytes: 10200 µL⁻¹
  Lymphocytes (%): 78%
  Lymphocytes (x 103/ul): 8 x 103/ul
  Mean Corpuscular Hemoglobin: 29.6 pg
  Mean Corpuscular Volume: 80.5 fL
  Mean Hemoglobin Content: 36.8 g/dL
  Mean Platelet Volume: 11.9 fL
  Monocytes (%): 6.1%
  Monocytes (x 103/ul): 0.6 x 103/ul
  Platelets: 253000 µL⁻¹
  Red Cell Distribution Width: 11.7%
  Reticulocytes: 1.1%
  WEIGHT: 895 g
26047 Female (ITM1), day 8
  Blood Urea Nitrogen: 18.65 mg/dL
  Creatine: 0.539 mg/dL
  Erythrocytes: 4.63e+06 µL⁻¹
  Glutamate Pyruvate Transaminase: 13.2 U/L
  Granulocytes (%): 10%
  Granulocytes (x 103/ul): 1.3 x 103/ul
  Hematocrit: 36.7%
  Hemoglobin: 13.2 g/dL
  Leucocytes: 12900 µL⁻¹
  Lymphocytes (%): 74.5%
  Lymphocytes (x 103/ul): 9.6 x 103/ul
  Mean Corpuscular Hemoglobin: 28.5 pg
  Mean Corpuscular Volume: 79.3 fL
  Mean Hemoglobin Content: 35.9 g/dL
  Mean Platelet Volume: 9.7 fL
  Monocytes (%): 15.5%
  Monocytes (x 103/ul): 2 x 103/ul
  Platelets: 297000 µL⁻¹
  Red Cell Distribution Width: 12.5%
  Reticulocytes: 2.8%
  WEIGHT: 814 g
26047 Female (ITM1), day 12
  Blood Urea Nitrogen: 10.55 mg/dL
  Creatine: 0.5 mg/dL
  Erythrocytes: 4.11e+06 µL⁻¹
  Glutamate Pyruvate Transaminase: 27.3 U/L
  Granulocytes (%): 21.3%
  Granulocytes (x 103/ul): 3.6 x 103/ul
  Hematocrit: 32.7%
  Hemoglobin: 11.6 g/dL
  Leucocytes: 16800 µL⁻¹
  Lymphocytes (%): 68.4%
  Lymphocytes (x 103/ul): 11.5 x 103/ul
  Mean Corpuscular Hemoglobin: 28.3 pg
  Mean Corpuscular Volume: 79.5 fL
  Mean Hemoglobin Content: 35.5 g/dL
  Mean Platelet Volume: 9.9 fL
  Monocytes (%): 10.3%
  Monocytes (x 103/ul): 1.7 x 103/ul
  Platelets: 338000 µL⁻¹
  Red Cell Distribution Width: 13.6%
  Reticulocytes: 2.2%
  WEIGHT: 845 g
26047 Female (ITM1), day 15
  Blood Urea Nitrogen: 11.4 mg/dL
  Creatine: 0.638 mg/dL
  Erythrocytes: 4.51e+06 µL⁻¹
  Glutamate Pyruvate Transaminase: 21.4 U/L
  Granulocytes (%): 7.5%
  Granulocytes (x 103/ul): 1 x 103/ul
  Hematocrit: 36.3%
  Hemoglobin: 12.9 g/dL
  Leucocytes: 13100 µL⁻¹
  Lymphocytes (%): 81.3%
  Lymphocytes (x 103/ul): 10.7 x 103/ul
  Mean Corpuscular Hemoglobin: 28.7 pg
  Mean Corpuscular Volume: 80.5 fL
  Mean Hemoglobin Content: 35.6 g/dL
  Mean Platelet Volume: 10.4 fL
  Monocytes (x 103/ul): 1.5 x 103/ul
  Platelets: 164000 µL⁻¹
  Red Cell Distribution Width: 17.5%
  Reticulocytes: 4.2%
  WEIGHT: 839 g
26047 Female (ITM1), day 18
  Blood Urea Nitrogen: 16.4 mg/dL
  Creatine: 0.5 mg/dL
  Erythrocytes: 4.39e+06 µL⁻¹
  Glutamate Pyruvate Transaminase: 15.3 U/L
  Granulocytes (%): 7.8%
  Granulocytes (x 103/ul): 1.7 x 103/ul
  Hematocrit: 35.7%
  Hemoglobin: 12.3 g/dL
  Leucocytes: 21900 µL⁻¹
  Lymphocytes (%): 82.9%
  Lymphocytes (x 103/ul): 18.2 x 103/ul
  Mean Corpuscular Hemoglobin: 28 pg
  Mean Corpuscular Volume: 81.2 fL
  Mean Hemoglobin Content: 34.4 g/dL
  Mean Platelet Volume: 12.4 fL
  Monocytes (%): 9.3%
  Monocytes (x 103/ul): 2 x 103/ul
  Platelets: 115000 µL⁻¹
  Red Cell Distribution Width: 16.7%
  Reticulocytes: 3.1%
  WEIGHT: 860 g
26047 Female (ITM1), day 25
  Erythrocytes: 4.98e+06 µL⁻¹
  Granulocytes (%): 4.7%
  Granulocytes (x 103/ul): 0.8 x 103/ul
  Hematocrit: 40.8%
  Hemoglobin: 13.7 g/dL
  Leucocytes: 16900 µL⁻¹
  Lymphocytes (%): 90%
  Lymphocytes (x 103/ul): 15.2 x 103/ul
  Mean Corpuscular Hemoglobin: 27.4 pg
  Mean Corpuscular Volume: 81.8 fL
  Mean Hemoglobin Content: 33.6 g/dL
  Mean Platelet Volume: 11.8 fL
  Monocytes (%): 5.3%
  Monocytes (x 103/ul): 0.9 x 103/ul
  Platelets: 158000 µL⁻¹
  Red Cell Distribution Width: 17.4%
  Reticulocytes: 1.9%
  WEIGHT: 843 g
26047 Female (ITM1), day -10
  Blood Urea Nitrogen: 15.35 mg/dL
  Creatine: 0.531 mg/dL
  Erythrocytes: 6.12e+06 µL⁻¹
  Glutamate Pyruvate Transaminase: 20.1 U/L
  Granulocytes (%): 6.5%
  Granulocytes (x 103/ul): 1.5 x 103/ul
  Hematocrit: 47.5%
  Hemoglobin: 17.3 g/dL
  Leucocytes: 23800 µL⁻¹
  Lymphocytes (%): 87.8%
  Lymphocytes (x 103/ul): 20.9 x 103/ul
  Mean Corpuscular Hemoglobin: 28.3 pg
  Mean Corpuscular Volume: 77.6 fL
  Mean Hemoglobin Content: 36.4 g/dL
  Mean Platelet Volume: 11 fL
  Monocytes (%): 5.7%
  Monocytes (x 103/ul): 1.4 x 103/ul
  Platelets: 266000 µL⁻¹
  Red Cell Distribution Width: 11%
  Reticulocytes: 2.1%
  WEIGHT: 824 g
